Results as given in patent US9012674B1, “Ethyl (2R)-2-acetamido-3-(4-methylbenzoylsulfanyl)propanoate and uses thereof” (Promentis Pharmaceuticals, Inc., priority 2013, dated 2015).

Tests used:
[1] = system: human glial cells from brain astrocytoma (1321N1); test: 3H-glutamate release in human astrocytoma cell culture; format: cell-based; conditions: 300 μM (most effective concentration); at 3 hours; versus untreated control
Description: This assay also uses the cell culture system of human glial cells from brain astrocytoma (1321N1) described above. Initially, cells are washed with HBBSS, and ^3H-glutamate is added (PerkinElmer: 1 mCi/mL stock solution is diluted (30 μL+500 μL HBBSS) and 10 μL of diluted radiolabel is added to each well). Following a 1 hour incubation to load the cells with the labeled glutamate, the cells are washed again with HBBSS, and the drug is added. At 30, 90, and 180 minutes, 50 μL of extracellular media is sampled from each well and is measured using a Beckman LS 6500 scintillation counter.
Results of the ^14C-cystine uptake and ^3H-glutamate release by astrocytes treated with differing concentrations of Pro-4051, are presented in FIG. 1, as a percentage of the untreated control. […] This graph represents an average of three experiments run.

[2] = system: human glial cells from brain astrocytoma (1321N1); test: 14C-cystine uptake in human astrocytoma cell culture; format: cell-based; conditions: 100 μM (most effective concentration); three hour incubation; versus untreated control; average of three experiments
Description: The goal of these experiments was to determine ^14C-cystine uptake. The experiments were conducted as follows.
The screening of the compound was performed using an in vitro culture system of human glial cells from brain astrocytoma (1321N1). Cells were plated on 24 well plates coated with poly-D-lysine and laminin and grown in a balanced salt solution supplemented with 5% heat inactivated horse serum, 5% fetal bovine serum, 2 mM glutamine and glucose (total 21 mM). Cultures were maintained in humidified 5% CO2 incubators at 37° C. for 3-4 days before experiments were performed, at this time the cultures has formed a single confluent layer. For experiments, cultures were washed 3 times into a Na-free HEPES and HCO3^− buffered balanced salt solution. After 1 hour the test compounds are added. Following a three hour incubation, ^14C-cystine (0.025 mCi/mL) was then added for 20 minutes. Following the ^14C-cystine exposure, cultures were washed 3 times with ice cold HEPES buffered saline solution and dissolved in 250 μl sodium dodecyl sulfate (0.1%). An aliquot (200 μl) was removed and added to scintillation fluid for counting. Values were normalized to ^14C-cystine uptake in untreated controls on the same experimental plate. […]

Solubility data = format: physicochemical; conditions: according to solubility data; read-out: concentration above which compound is not in solution (solubility)

In the case of `CCOC(=O)[C@H](CSC(=O)c1ccc(C)cc1)NC(C)=O` [Pro-4051, ethyl (2R)-2-acetamido-3-(4-methylbenzoylsulfanyl)propanoate], the “increase in 3H-glutamate release” value [1] is reported as “approximately 100%”, the “decrease in 14C-cystine uptake” value [2] is reported as “approximately 28%” and the solubility (Solubility data) is reported as at most 316 µM.
